According to PubChem BioAssay AID1919010 (Molecular Pharmacology Branch, DTP, NCI, 2023):

Tested on: Hs578T complex spheroid growth, percent test/control
Experiment: Anticancer human tumor Hs578T cell line growth inhibition [AhR];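 also: luminescent viability signal as a proxy for spheroid growth; spheroids exposed to agents for one week after three days of growth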
Details: for IC50: curve of first compound; for viability, T/C: stronger effect = lower value
Outline: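 Complex tumor spheroids co-cultured with HUVEC and human MSC stroma; AhR antagonists tested in combination with standard-of-care and investigational agents. Top concentration at or near clinical Cmax (else 10 microM), half-log dilutions; growth expressed as percent test/control.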

[1] = second compound 0.1 µM, first compound 0.0316 µM
[2] = second compound 0.1 µM, first compound 0.1 µM
[3] = second compound 0.1 µM, first compound 0.316 µM
[4] = second compound 0.1 µM, first compound 1 µM
[5] = second compound 0.316 µM, first compound 0.0316 µM
[6] = second compound 0.316 µM, first compound 0.1 µM
[7] = second compound 0.316 µM, first compound 0.316 µM
[8] = second compound 0.316 µM, first compound 1 µM
[9] = second compound 1 µM, first compound 0.0316 µM
[10] = second compound 1 µM, first compound 0.1 µM
[11] = second compound 1 µM, first compound 0.316 µM
[12] = second compound 1 µM, first compound 1 µM
[13] = second compound 3.16 µM, first compound 0.0316 µM
[14] = second compound 3.16 µM, first compound 0.1 µM
[15] = second compound 3.16 µM, first compound 0.316 µM
[16] = second compound 3.16 µM, first compound 1 µM
[17] = second compound 10 µM, first compound 0.0316 µM
[18] = second compound 10 µM, first compound 0.1 µM
[19] = second compound 10 µM, first compound 0.316 µM
[20] = second compound 10 µM, first compound 1 µM

| IC50 (second compound 0.1 µM) | IC50 (second compound 0.316 µM) | IC50 (second compound 1 µM) | IC50 (second compound 3.16 µM) | IC50 (second compound 10 µM) | Compound | viability, T/C [1] | viability, T/C [2] | viability, T/C [3] | viability, T/C [4] | viability, T/C [5] | viability, T/C [6] | viability, T/C [7] | viability, T/C [8] | viability, T/C [9] | viability, T/C [10] | viability, T/C [11] | viability, T/C [12] | viability, T/C [13] | viability, T/C [14] | viability, T/C [15] | also measured |
| --- | --- | --- | --- | --- | --- | --- | --- | --- | --- | --- | --- | --- | --- | --- | --- | --- | --- | --- | --- | --- | --- |
| 526 nM | 778 nM | 615 nM | 384 nM | 860 nM | CC1COCCN1c1cc(-c2ccnn2C)c2ccnc(-c3ccn[nH]3)c2n1 (stereo not given) + CC(CO)NC(=O)c1cc(-c2ccc(Cl)cc2)nn(-c2cnn(C)c2)c1=O | 114% | 91.9% | 53.6% | 45.4% | 112% | 96% | 59.7% | 47.8% | 122% | 89.8% | 56.2% | 45.5% | 121% | 86.9% | 51.6% | viability, T/C (second compound 0.1 µM, first compound 0.00316 µM): 118%; viability, T/C (second compound 0.1 µM, first compound 0.01 µM): 117%; viability, T/C (second compound 0.316 µM, first compound 0.00316 µM): 133%; viability, T/C (second compound 0.316 µM, first compound 0.01 µM): 124%; viability, T/C (second compound 1 µM, first compound 0.00316 µM): 123%; viability, T/C (second compound 1 µM, first compound 0.01 µM): 126%; viability, T/C (second compound 3.16 µM, first compound 0.00316 µM): 121%; viability, T/C (second compound 3.16 µM, first compound 0.01 µM): 122%; viability, T/C [16]: 46.2%; viability, T/C (second compound 10 µM, first compound 0.00316 µM): 121%; viability, T/C (second compound 10 µM, first compound 0.01 µM): 124%; viability, T/C [17]: 115%; viability, T/C [18]: 74.5%; viability, T/C [19]: 57.6%; viability, T/C [20]: 45.9% |
| > 10000 nM | > 10000 nM | > 10000 nM | > 10000 nM | > 10000 nM | CC1COCCN1c1cc(C2(S(C)(=N)=O)CC2)nc(-c2ccnc3[nH]ccc23)n1 (stereo not given) + CC(CO)NC(=O)c1cc(-c2ccc(Cl)cc2)nn(-c2cnn(C)c2)c1=O | 112% | 117% | 108% | 107% | 113% | 122% | 127% | 100% | 111% | 134% | 112% | 111% | 111% | 114% | 114% | viability, T/C (second compound 0.1 µM, first compound 3.16 µM): 90.5%; viability, T/C (second compound 0.1 µM, first compound 10 µM): 60.3%; viability, T/C (second compound 0.316 µM, first compound 3.16 µM): 85.2%; viability, T/C (second compound 0.316 µM, first compound 10 µM): 61.3%; viability, T/C (second compound 1 µM, first compound 3.16 µM): 94.7%; viability, T/C (second compound 1 µM, first compound 10 µM): 66%; viability, T/C [16]: 111%; viability, T/C (second compound 3.16 µM, first compound 3.16 µM): 91.7%; viability, T/C (second compound 3.16 µM, first compound 10 µM): 59.5%; viability, T/C [17]: 105%; viability, T/C [18]: 121%; viability, T/C [19]: 122%; viability, T/C [20]: 116%; viability, T/C (second compound 10 µM, first compound 3.16 µM): 90.9%; viability, T/C (second compound 10 µM, first compound 10 µM): 58.8% |
